Experimental data published in US6524560B1, “Use of substituted vinyltetrahydronaphthalenes and vinyl-benzotetrahydropyrans as light protection agents” (BASF Aktiengesellschaft, priority 1999, dated 2003).

Columns and labels:
[1] = UV absorption (absorption maximum and specific absorbance E 1/1); type: physicochemical; settings: for λmax: UV absorption maximum; for E^1/1: specific absorbance at λmax
[2] = Standardized method for determining photostability (sun test); type: physicochemical; settings: 5% strength by weight alcoholic solution on glass plate, 40° C.; for Photostability 30 min: 30 min irradiation; for Photostability 2 h: 2 h irradiation
Experimental: Standardized Method for Determining Photostability (Sun Test)
A 5% strength by weight alcoholic solution of the light protection agent to be tested is applied, using an Eppendorf pipette (20 μl), to the milled area of a small glass plate. Owing to the presence of the alcohol, the solution distributes uniformly on the roughened surface of the glass. The amount applied corresponds to the amount of light protection agent required to achieve an average sun protection factor in suncreams. In the test, four small glass plates are irradiated in each case. […] The small glass plates are cooled slightly during irradiation using a water cooling system located at the base of the sun test apparatus. The temperature inside the sun test apparatus is 40° C. during irradiation. After the samples have been irradiated, they are washed with ethanol in a dark 50 ml graduated flask and measured using a photometer. The blank samples are likewise applied to small glass plates and evaporated at room temperature for 30 minutes. Like the other samples, they are washed off with ethanol and diluted to 100 ml and measured.

[3] = used alone or in combination with UV-B filters; cited from earlier work

Compound	λmax [1] [nm]	E^1/1 [1]	Photostability 30 min [2]	Photostability 2 h [2]	photochemical stability [3]
CC(=C(C#N)C#N)c1ccc2c(c1)C(C)(C)CCC2 [Example 1]	346	694	96%	90%	–
COc1ccc(C(=O)CC(=O)c2ccc(C(C)(C)C)cc2)cc1 [PARSOL 1789, 4-(1,1-dimethylethyl)-4′-methoxydibenzoylmethane]	–	–	–	–	does not have sufficient photochemical stability
CC(=O)C(=Cc1ccc2c(c1)C(C)(C)CCO2)C(C)=O [Example 3]	330	801	97%	84%	–
Cc1cc2c(cc1C=C(C#N)C#N)C(C)(C)CCC2(C)C [Example 4]	336	700	95%	83%	–
CCOC(=O)C(=Cc1ccc2c(c1)C(C)(C)CCO2)C(=O)OCC [Example 2]	320	616	100%	95%	–
CC(C)(C)C(=O)/C(C#N)=C/c1ccc2c(c1)C(C)(C)CCC2(C)C [Example 5]	330	601	86%	83%	–

More lines, main results first:

λmax [1] [nm]	E^1/1 [1]	Photostability 30 min [2]	Photostability 2 h [2]	Compound	photochemical stability [3]
294	594	99%	95%	CCOC(=O)C(=Cc1cc2c(cc1C)C(C)(C)CCC2(C)C)C(=O)OCC [Example 7]	–
–	–	100/100%	100/100%	CCOC(=O)C(=Cc1cc2c(cc1OC)C(C)(C)CCC2(C)C)C(=O)OCC [Example 8]	–
294	411	100%	99%	CCOC(=O)C(=Cc1ccc2c(c1)C(C)(C)CCC2(C)C)C(=O)OCC [Example 6]	–
